Measured values reported in patent publication US10294275B2, “Site-selective functionalization of glycopeptide antibiotics” (Yale University, priority 2012, dated 2019).
In brackets after ≈: the same amount, converted by molar mass.

Key:
Format in all cases: cell-based
[1] = test system: methicillin-susceptible S. aureus, ATCC 29213; test: Minimum inhibitory concentration against MSSA
From the text: (§1) The chemistry described above enabled direct synthesis of eleven previously unknown analogs of 3. The minimum inhibitory concentrations (MICs) for the new analogs as antibacterial agents as determined.

[2] = test system: methicillin-resistant S. aureus, ATCC 43300; test: Minimum inhibitory concentration against MRSA; conditions: for potency against MRSA strain, in words: compared with vancomycin and teicoplanin
From the text: as §1

[3] = test system: vancomycin-susceptible enterococci, ATCC 29212; test: Minimum inhibitory concentration against VSE; conditions: vancomycin-susceptible enterococci, ATCC 29212
From the text: as §1

[4] = test system: vancomycin-resistant enterococci (VanB), ATCC 51299; test: Minimum inhibitory concentration against VRE (VanB)
From the text: as §1

[5] = test system: vancomycin-resistant enterococci (VanA), MMX 486; test: Minimum inhibitory concentration against VRE (VanA); conditions: for activity against VRE (VanA) strain, in words: compared with vancomycin and teicoplanin
From the text: as §1

[6] = methicillin-susceptible S. aureus, ATCC 29213
[7] = methicillin-resistant S. aureus, ATCC 43300
[8] = vancomycin-resistant enterococci, ATCC 51299
[9] = MMX 486, vancomycin and teicoplanin resistant
[10] = compared with vancomycin and teicoplanin

SMILES | MIC, MSSA [1, 6] [µg/mL] | MIC, MRSA [2, 7] [µg/mL] | MIC, VSE [3] [µg/mL] | MIC, VRE (VanB) [4, 8] [µg/mL] | MIC, VRE (VanA) [5, 9] [µg/mL] | potency against MRSA strain, in words [2] | activity against VRE (VanB) strain, in words [4, 10] | activity against VRE (VanA) strain, in words [5] | potency against MSSA strain, in words [1, 10] | MIC ([1]; Staphylococcus aureus, methicillin-susceptible S. aureus, ATCC 29213, read-out: MIC, MSSA) [µg/mL] | MIC ([2]; Staphylococcus aureus, methicillin-resistant S. aureus, ATCC 43300, read-out: MIC, MRSA) [µg/mL] | MIC ([3]; read-out: MIC, VSE) [µg/mL] | MIC ([4]; Enterococcus, vancomycin-resistant enterococci, ATCC 51299, read-out: MIC, VRE (VanB)) [µg/mL] | MIC ([5]; Enterococcus, VRE, MMX 486, vancomycin and teicoplanin resistant, read-out: MIC, VRE (VanA)) [µg/mL]
CC(=O)N[C@H]1[C@H](O[C@@H]2c3ccc(c(Cl)c3)Oc3cc4cc(c3O[C@@H]3O[C@H](CO)[C@@H](O)[C@H](O)[C@H]3NC(=O)CCCCCCC(C)C)Oc3ccc(cc3Cl)C[C@H]3NC(=O)[C@H](N)c5ccc(O)c(c5)Oc5cc(O)cc(c5)[C@H](NC3=O)C(=O)N[C@H]4C(=O)N[C@H]3C(=O)N[C@@H]2C(=O)N[C@H](C(=O)O)c2c(Br)c(O)cc(O[C@H]4O[C@H](CO)[C@@H](O)[C@H](O)[C@@H]4O)c2-c2cc3ccc2O)O[C@H](CO)[C@@H](O)[C@@H]1O [Compound 4] | 0.5 (≈ 0.255 µM) | 1 (≈ 0.511 µM) | 0.5 (≈ 0.255 µM) | 1 (≈ 0.511 µM) | >64 | – | – | – | – | – | – | – | – | –
CC(=O)N[C@H]1[C@H](O[C@@H]2c3ccc(c(Cl)c3)Oc3cc4cc(c3O[C@@H]3O[C@H](CO)[C@@H](O)[C@H](O)[C@H]3NC(=O)CCCCCCC(C)C)Oc3ccc(cc3Cl)C[C@H]3NC(=O)[C@H](N)c5ccc(O)c(c5)Oc5cc(O)c(Br)c(c5)[C@H](NC3=O)C(=O)N[C@H]4C(=O)N[C@H]3C(=O)N[C@@H]2C(=O)N[C@H](C(=O)O)c2cc(O)cc(O[C@H]4O[C@H](CO)[C@@H](O)[C@H](O)[C@@H]4O)c2-c2cc3ccc2O)O[C@H](CO)[C@@H](O)[C@@H]1O [Compound 7] | 0.5 (≈ 0.255 µM) | 1 (≈ 0.511 µM) | 0.25 (≈ 0.128 µM) | 0.5 (≈ 0.255 µM) | >64 | – | – | – | – | – | – | – | – | –
CC(=O)N[C@H]1[C@H](O[C@@H]2c3ccc(c(Cl)c3)Oc3cc4cc(c3O[C@@H]3O[C@H](CO)[C@@H](O)[C@H](O)[C@H]3NC(=O)CCCCCCC(C)C)Oc3ccc(cc3Cl)C[C@H]3NC(=O)[C@H](N)c5ccc(O)c(c5)Oc5cc(c(Br)c(O)c5Br)[C@H](NC3=O)C(=O)N[C@H]4C(=O)N[C@H]3C(=O)N[C@@H]2C(=O)N[C@H](C(=O)O)c2cc(O)c(Br)c(O[C@H]4O[C@H](CO)[C@@H](O)[C@H](O)[C@@H]4O)c2-c2cc3ccc2O)O[C@H](CO)[C@@H](O)[C@@H]1O [Compound 12] | 2 (≈ 0.945 µM) | 2 (≈ 0.945 µM) | 4 (≈ 1.89 µM) | 8 (≈ 3.78 µM) | >64 | – | – | – | – | – | – | – | – | –
CC(=O)N[C@H]1[C@H](O[C@@H]2c3ccc(c(Cl)c3)Oc3cc4cc(c3O[C@@H]3O[C@H](CO)[C@@H](O)[C@H](O)[C@H]3NC(=O)CCCCCCC(C)C)Oc3ccc(cc3Cl)C[C@H]3NC(=O)[C@H](N)c5ccc(O)c(c5)Oc5cc(O)c(-c6ccoc6)c(c5)[C@H](NC3=O)C(=O)N[C@H]4C(=O)N[C@H]3C(=O)N[C@@H]2C(=O)N[C@H](C(=O)O)c2cc(O)cc(O[C@H]4O[C@H](CO)[C@@H](O)[C@H](O)[C@@H]4O)c2-c2cc3ccc2O)O[C@H](CO)[C@@H](O)[C@@H]1O [Compound 14] | 0.25 (≈ 0.128 µM) | 0.25 (≈ 0.128 µM) | 0.25 (≈ 0.128 µM) | 0.5 (≈ 0.257 µM) | >64 | higher potency | – | – | – | – | – | – | – | –
CC(=O)N[C@H]1[C@H](O[C@@H]2c3ccc(c(Cl)c3)Oc3cc4cc(c3O[C@@H]3O[C@H](CO)[C@@H](O)[C@H](O)[C@H]3NC(=O)CCCCCCC(C)C)Oc3ccc(cc3-c3ccoc3)C[C@H]3NC(=O)[C@H](N)c5ccc(O)c(c5)Oc5cc(O)c(-c6ccoc6)c(c5)[C@H](NC3=O)C(=O)N[C@H]4C(=O)N[C@H]3C(=O)N[C@@H]2C(=O)N[C@H](C(=O)O)c2cc(O)cc(O[C@H]4O[C@H](CO)[C@@H](O)[C@H](O)[C@@H]4O)c2-c2cc3ccc2O)O[C@H](CO)[C@@H](O)[C@@H]1O [Compound 15] | 0.25 (≈ 0.126 µM) | 0.25 (≈ 0.126 µM) | 0.12 (≈ 0.0607 µM) | 0.25 (≈ 0.126 µM) | >32 | – | – | – | – | – | – | – | – | –
CC(=O)N[C@H]1[C@H](O[C@@H]2c3ccc(c(Cl)c3)Oc3cc4cc(c3O[C@@H]3O[C@H](CO)[C@@H](O)[C@H](O)[C@H]3NC(=O)CCCCCCC(C)C)Oc3ccc(cc3-c3ccoc3)C[C@H]3NC(=O)[C@H](N)c5ccc(O)c(c5)Oc5cc(O)cc(c5)[C@H](NC3=O)C(=O)N[C@H]4C(=O)N[C@H]3C(=O)N[C@@H]2C(=O)N[C@H](C(=O)O)c2c(Br)c(O)cc(O[C@H]4O[C@H](CO)[C@@H](O)[C@H](O)[C@@H]4O)c2-c2cc3ccc2O)O[C@H](CO)[C@@H](O)[C@@H]1O [Compound 16] | 0.5 (≈ 0.251 µM) | 0.5 (≈ 0.251 µM) | 0.25 (≈ 0.126 µM) | 0.5 (≈ 0.251 µM) | >64 | – | – | – | – | – | – | – | – | –
CC(=O)N[C@H]1[C@H](O[C@@H]2c3ccc(c(Cl)c3)Oc3cc4cc(c3O[C@@H]3O[C@H](CO)[C@@H](O)[C@H](O)[C@H]3NC(=O)CCCCCCC(C)C)Oc3ccc(cc3-c3ccc(-c5ccccc5)cc3)C[C@H]3NC(=O)[C@H](N)c5ccc(O)c(c5)Oc5cc(O)cc(c5)[C@H](NC3=O)C(=O)N[C@H]4C(=O)N[C@H]3C(=O)N[C@@H]2C(=O)N[C@H](C(=O)O)c2c(Br)c(O)cc(O[C@H]4O[C@H](CO)[C@@H](O)[C@H](O)[C@@H]4O)c2-c2cc3ccc2O)O[C@H](CO)[C@@H](O)[C@@H]1O [Compound 17] | 4 (≈ 1.93 µM) | 2 (≈ 0.963 µM) | 1 (≈ 0.482 µM) | 0.5 (≈ 0.241 µM) | 32 (≈ 15.4 µM) | – | – | – | – | – | – | – | – | –
CC(=O)N[C@H]1[C@H](O[C@@H]2c3ccc(c(Cl)c3)Oc3cc4cc(c3O[C@@H]3O[C@H](CO)[C@@H](O)[C@H](O)[C@H]3NC(=O)CCCCCCC(C)C)Oc3ccc(cc3-c3ccoc3)C[C@H]3NC(=O)[C@H](N)c5ccc(O)c(c5)Oc5cc(O)cc(c5)[C@H](NC3=O)C(=O)N[C@H]4C(=O)N[C@H]3C(=O)N[C@@H]2C(=O)N[C@H](C(=O)O)c2cc(O)cc(O[C@H]4O[C@H](CO)[C@@H](O)[C@H](O)[C@@H]4O)c2-c2cc3ccc2O)O[C@H](CO)[C@@H](O)[C@@H]1O [Compound 18] | 0.25 (≈ 0.131 µM) | 0.25 (≈ 0.131 µM) | 0.12 (≈ 0.0628 µM) | 0.12 (≈ 0.0628 µM) | 32 (≈ 16.7 µM) | – | enhancement of activity | enhancement of activity | – | – | – | – | – | –
CC(=O)N[C@H]1[C@H](O[C@@H]2c3ccc(c(Cl)c3)Oc3cc4cc(c3O[C@@H]3O[C@H](CO)[C@@H](O)[C@H](O)[C@H]3NC(=O)CCCCCCC(C)C)Oc3ccc(cc3-c3ccc(-c5ccccc5)cc3)C[C@H]3NC(=O)[C@H](N)c5ccc(O)c(c5)Oc5cc(O)cc(c5)[C@H](NC3=O)C(=O)N[C@H]4C(=O)N[C@H]3C(=O)N[C@@H]2C(=O)N[C@H](C(=O)O)c2cc(O)cc(O[C@H]4O[C@H](CO)[C@@H](O)[C@H](O)[C@@H]4O)c2-c2cc3ccc2O)O[C@H](CO)[C@@H](O)[C@@H]1O [Compound 19] | 8 (≈ 4.01 µM) | 4 (≈ 2 µM) | 0.5 (≈ 0.25 µM) | 0.25 (≈ 0.125 µM) | 8 (≈ 4.01 µM) | loss of potency | – | significant activity | loss of potency | – | – | – | – | –
CCCCCC/C=C/c1cc2ccc1Oc1cc3cc(c1O[C@@H]1O[C@H](CO)[C@@H](O)[C@H](O)[C@H]1NC(=O)CCCCCCC(C)C)Oc1ccc(cc1Cl)[C@@H](O[C@@H]1O[C@H](CO)[C@@H](O)[C@H](O)[C@H]1NC(C)=O)[C@@H]1NC(=O)[C@H](NC(=O)[C@@H]3NC(=O)[C@H]3NC(=O)[C@@H](C2)NC(=O)[C@H](N)c2ccc(O)c(c2)Oc2cc(O)cc3c2)c2ccc(O)c(c2)-c2c(O[C@H]3O[C@H](CO)[C@@H](O)[C@H](O)[C@@H]3O)cc(O)cc2[C@@H](C(=O)O)NC1=O [Compound 20] | 8 (≈ 4.09 µM) | 4 (≈ 2.05 µM) | 0.5 (≈ 0.256 µM) | 0.25 (≈ 0.128 µM) | 1 (≈ 0.511 µM) | – | – | quite high (significant) potency | – | – | – | – | – | –
CC(=O)NC[C@H]1CN(c2ccc(N3CCOCC3)c(F)c2)C(=O)O1 [Linezolid, reference compound] | – | – | – | – | – | – | – | – | – | 4 (≈ 11.9 µM) | 4 (≈ 11.9 µM) | 2 (≈ 5.93 µM) | 2 (≈ 5.93 µM) | 2 (≈ 5.93 µM)
